Test [1] has as its system H3K27 methylation in G401 cell. Briefly: ELISA (H3K27 methylation) assay. In kind it is cell-based. The following applies: cultured 48 h with compound, normalized using H3 signal. On the procedure: ELISA (H3K27 methylation) assay
Representative compounds of the invention were serially and separately diluted 3-fold in DO to obtain a total of eight or twelve concentrations. Then the compounds were added to G401 cell cultured in 384-well plate at 1:500 dilution to obtain the highest concentration of 20 μM. The cells were further cultured for 48 h before ELISA procedure.
Histone extraction: Cells, in 384-well plate, were washed with PBS (10 x PBS buffer (80 g NaCl (Sigma, S3014), 2 g KCl (Sigma, 60128), 14.4 g Na2HPO4 (Sigma, S5136), 2.4 g KH2PO4 (Sigma, P9791) to 1 L water, pH to 7.4) and lysed with the addition of lysis buffer (0.4N HCl; 45 μl per well). The plate was gently agitated at 4° C. for 30 min. The cell lysate was neutralized with neutralization buffer (0.5 M sodium phosphate dibasic, pH 12.5. 1 mM DTT; 36 µL per well). The plate was agitated to ensure the lysates were well mixed prior to the ELISA protocol.
ELISA protocol: Cell lysates were transferred to the wells of a 384-well plate and the final volume was adjusted to 50 μL per well with PBS. The plate was sealed, centrifuged at 2,000 rpm for 2 min and incubated at 4° C. for about 16 h. The plate was washed with TBST buffer (1 x TBS (10x TBS: 24.2 g Tris (Sigma, T6066), 80 g NaCl (Sigma, S3014) to 1 L of water and adjust pH to 7.6 with HCl) with 0.1% Tween-20). Blocking buffer (TBST, 5% BSA; 50 µL per well) was added and the plate was incubated for 1 h at rt. The blocking buffer was removed and primary antibody was added (30 μL per well). The following dilutions were performed with blocking buffer: for anti-H3K27me3 antibody (Cell Signaling Technology, #9733), dilution was 1:1000; for anti-H3K27me2 antibody (Cell Signaling Technology, #9288), dilution was 1:100; for anti-H3 antibody (Abcam, Cat #24834), dilution was 1:1000. The primary antibody was incubated in the plate at rt for 1 h. The wells were washed with TBST and incubated with secondary antibody for 1 h at rt. For secondary antibodies, the following dilutions were carried out with blocking buffer: anti-rabbit antibody (Jackson ImmunoResearch, #111-035-003), dilution was 1:2000; and anti-mouse antibody (Cell signaling technology, #7076), dilution was 1:1000.
After 1 h of incubation at rt, the wells were washed with TBST. ECL substrate (Pierce, #34080) was added at 30 μL per well and the plates were centrifuged at 2,000 rpm for 2 min. The signal was read using a PerkinElmer Envision Reader. The H3K27 methylation readouts were normalized using H3 signal and then percentage inhibition was calculated against the samples treated with DO. The data were fit to a dose response curve using the program Helios to get the IC50 values of the test compound.

In test [2] the target is wild type PRC2 (wtPRC2) complex (Homo sapiens, UniProt Q15910). Briefly: EZH2 LC-MS Assay. In kind it is biochemical. The settings on record: 40 nM wtPRC2 complex, 30 uM SAM, 1.5 uM H3K27me1 and 3 uM H3K27me3 peptides; SAH production. The protocol:
Representative compounds of the invention were serially and separately diluted 3-fold in DMSO to obtain twelve concentrations. Then the test compounds at each concentration (120 nL of each) were transferred by Mosquito into a 384-well Perkin Elmer ProxiPlate 384 plus plates. Solutions (6 μL) of 80 nM wild type PRC2 (wtPRC2) complex and 60 µM SAM in reaction buffer (20 mM Tris, pH 8.0, 0.1% BSA, 0.01% Triton, 0.5 mM DTT) were added to the wells that were then incubated with the test compound for 20 min. A 6 μL solution of 3 µM of the substrate peptide H3K27me1 (histone H3 [21-44]-K27me1-biotin) and 6 μM regulatory peptide H3K27me3 (histone H3 [21-44]-K27me3) in reaction buffer was added to initiate each reaction. The final components in the reaction solution include 40 nM wtPRC2 complex, 30 µM SAM, 1.5 µM H3K27me1 and 3 µM H3K27me3 peptides with varying concentration of the compounds. A positive control consisted of the enzyme at 40 nM, 30 μM SAM, 1.5 µM H3K27me1 and 3 µM H3K27me3 in the absence of the test compound, and a negative control consisted of 30 µM SAM, 1.5 µM H3K27me1 and 3 μM H3K27me3 only. Each reaction was incubated at room temperature for 120 min, then stopped by addition of 3 μL per of quench solution (2.5% TFA with 320 nM d4-SAH). The reaction mixture was centrifuged (Eppendorf centrifuge 5810, Rotor A-4-62) for 2 min at 2000 rpm and read on an API 4000 triple quadrupole mass spec with Turbulon Spray (Applied Biosystem) coupled with Prominence UFLC (Shimadzu). The levels of SAH production were normalized based on the values coming from the positive and negative controls to give percent enzyme activities. The data were fit to a dose response equation using the program Helios to get the […] values of the test compound.

The structures appear in SMILES notation.

Sequence of wild type PRC2 (wtPRC2) complex (Q15910 whole entry): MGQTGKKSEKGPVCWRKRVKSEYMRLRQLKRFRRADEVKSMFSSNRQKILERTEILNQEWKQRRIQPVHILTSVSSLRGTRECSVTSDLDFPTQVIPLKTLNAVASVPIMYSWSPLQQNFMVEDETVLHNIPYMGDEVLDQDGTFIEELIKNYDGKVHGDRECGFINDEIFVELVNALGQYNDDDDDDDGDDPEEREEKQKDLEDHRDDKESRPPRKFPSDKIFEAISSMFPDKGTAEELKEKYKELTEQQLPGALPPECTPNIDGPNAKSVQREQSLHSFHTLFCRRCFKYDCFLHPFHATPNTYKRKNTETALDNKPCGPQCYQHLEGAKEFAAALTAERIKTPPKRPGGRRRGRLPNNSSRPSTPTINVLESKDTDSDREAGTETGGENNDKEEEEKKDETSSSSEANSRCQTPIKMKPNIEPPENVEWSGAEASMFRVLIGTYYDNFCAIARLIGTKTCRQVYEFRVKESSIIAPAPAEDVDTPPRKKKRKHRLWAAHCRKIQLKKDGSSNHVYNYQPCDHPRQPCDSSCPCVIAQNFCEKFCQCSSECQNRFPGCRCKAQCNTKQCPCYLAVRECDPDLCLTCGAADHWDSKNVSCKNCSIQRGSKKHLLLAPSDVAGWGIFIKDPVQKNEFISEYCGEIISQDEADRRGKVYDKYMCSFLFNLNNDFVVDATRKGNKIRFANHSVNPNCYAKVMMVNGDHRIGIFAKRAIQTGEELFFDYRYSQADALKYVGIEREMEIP
Sequence of wild type PRC2 (wtPRC2) complex (O75530 whole entry partner): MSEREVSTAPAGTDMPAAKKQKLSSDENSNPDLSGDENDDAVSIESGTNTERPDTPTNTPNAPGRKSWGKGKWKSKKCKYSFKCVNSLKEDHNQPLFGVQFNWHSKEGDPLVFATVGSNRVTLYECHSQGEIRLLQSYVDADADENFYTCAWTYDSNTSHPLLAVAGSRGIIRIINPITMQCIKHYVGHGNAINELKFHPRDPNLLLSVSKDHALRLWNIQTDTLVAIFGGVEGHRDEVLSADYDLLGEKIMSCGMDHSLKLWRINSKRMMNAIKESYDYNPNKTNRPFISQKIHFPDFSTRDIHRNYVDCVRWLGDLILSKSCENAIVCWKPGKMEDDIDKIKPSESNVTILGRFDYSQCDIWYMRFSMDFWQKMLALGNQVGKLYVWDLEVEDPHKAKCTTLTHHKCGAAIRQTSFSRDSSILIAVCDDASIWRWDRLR
Sequence of wild type PRC2 (wtPRC2) complex (Q15022 whole entry partner): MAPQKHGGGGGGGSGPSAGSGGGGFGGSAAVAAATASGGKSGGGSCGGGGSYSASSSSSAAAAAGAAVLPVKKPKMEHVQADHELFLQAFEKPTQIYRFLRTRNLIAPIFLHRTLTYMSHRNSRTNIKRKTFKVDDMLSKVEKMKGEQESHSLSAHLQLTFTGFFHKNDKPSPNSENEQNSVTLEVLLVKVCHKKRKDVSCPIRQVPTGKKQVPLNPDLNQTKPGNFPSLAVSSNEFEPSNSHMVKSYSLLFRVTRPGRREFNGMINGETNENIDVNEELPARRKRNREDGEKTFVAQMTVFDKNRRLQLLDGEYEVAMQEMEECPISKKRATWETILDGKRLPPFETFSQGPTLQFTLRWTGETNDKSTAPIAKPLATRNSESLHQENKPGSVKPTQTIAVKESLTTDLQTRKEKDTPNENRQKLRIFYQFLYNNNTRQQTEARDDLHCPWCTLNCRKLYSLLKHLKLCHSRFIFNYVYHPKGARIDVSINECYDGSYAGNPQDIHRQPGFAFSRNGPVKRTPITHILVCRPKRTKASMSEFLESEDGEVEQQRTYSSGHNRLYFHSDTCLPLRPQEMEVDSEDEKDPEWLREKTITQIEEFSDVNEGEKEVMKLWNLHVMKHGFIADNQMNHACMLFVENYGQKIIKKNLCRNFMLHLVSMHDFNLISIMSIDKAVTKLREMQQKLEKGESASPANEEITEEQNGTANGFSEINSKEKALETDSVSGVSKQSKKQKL

On to `Cc1ccc2ccc(N[C@H]3CC[C@H](CNc4ncc(CC(=O)N(C)C5COC5)cn4)CC3)nc2c1Cl` [Example 2, 2-(2-((((1r,4r)-4-((8-chloro-7-methylquinolin-2-yl)amino)cyclohexyl)methyl)amino)pyrimidin-5-yl)-N-methyl-N-(oxetan-3-yl)acetamide], for which the IC50 – broadly, the concentration that inhibits the measured activity by half – in test [1] (Homo sapiens, G-401, 48 h) is < 10 nM; in test [2], < 50 nM.
Regarding `Cc1ccc2ccc(N[C@H]3CC[C@H](CNc4ncc([C@@H](CO)C(=O)NC5COC5)cn4)CC3)nc2c1Cl` (single isomer, unassigned) [Example 7, (S)-2-(2-((((1r,4S)-4-((8-chloro-7-methylquinolin-2-yl)amino)cyclohexyl)methyl)amino)pyrimidin-5-yl)-3-hydroxy-N-(oxetan-3-yl)propanamide; or (R)-2-(2-((((1r,4R)-4-((8-chloro-7-methylquinolin-2-yl)amino)cyclohexyl)methyl)amino)pyrimidin-5-yl)-3-hydroxy-N-(oxetan-3-yl)propanamide], the IC50 lay in the range of 10 to 100 nM in test [1] (Homo sapiens, G-401, 48 h) and 50 to 100 nM in test [2].
`Cc1ccc2ccc(N[C@H]3CC[C@H](CNc4ncc([C@H](C)C(=O)NC5COC5)cn4)CC3)nc2c1Cl` (single isomer, unassigned) [Example 14, (S)-2-(2-((((1r,4S)-4-((8-chloro-7-methylquinolin-2-yl)amino)cyclohexyl)methyl)amino)pyrimidin-5-yl)-N-(oxetan-3-yl)propanamide; or (R)-2-(2-((((1r,4R)-4-((8-chloro-7-methylquinolin-2-yl)amino)cyclohexyl)methyl)amino)pyrimidin-5-yl)-N-(oxetan-3-yl)propanamide]: in test [2], the half-maximal inhibitory concentration (IC50) was < 50 nM.
On to `Cc1ccc2ccc(N[C@H]3CC[C@H](CNc4ncc(C(CO)C(=O)NC5COC5)cn4)CC3)nc2c1Cl` (some centres unmarked) [Example 6, 2-(2-((((1r,4r)-4-((8-chloro-7-methylquinolin-2-yl)amino)cyclohexyl)methyl)amino)pyrimidin-5-yl)-3-hydroxy-N-(oxetan-3-yl)propanamide], for which the IC50 in test [1] (Homo sapiens, G-401, 48 h) is < 10 nM; in test [2] it was < 50 nM.
Turning to `Cc1ccc2ccc(N[C@H]3CC[C@H](CNc4ncc([C@@H](CO)C(=O)NC5COC5)cn4)CC3)nc2c1Cl` (single isomer, unassigned) [Example 8, (S)-2-(2-((((1r,4S)-4-((8-chloro-7-methylquinolin-2-yl)amino)cyclohexyl)methyl)amino)pyrimidin-5-yl)-3-hydroxy-N-(oxetan-3-yl)propanamide; or (R)-2-(2-((((1r,4R)-4-((8-chloro-7-methylquinolin-2-yl)amino)cyclohexyl)methyl)amino)pyrimidin-5-yl)-3-hydroxy-N-(oxetan-3-yl)propanamide], the 50% inhibitory concentration (IC50) in test [1] was < 10 nM; in test [2], < 50 nM.
For the compound `Cc1ccc2ccc(N[C@H]3CC[C@H](CNc4ncc(C(C#N)C(=O)NC5COC5)cn4)CC3)nc2c1Cl` (some centres unmarked) [Example 5, 2-(2-((((1r,4r)-4-((8-chloro-7-methylquinolin-2-yl)amino)cyclohexyl)methyl)amino)pyrimidin-5-yl)-2-cyano-N-(oxetan-3-yl)acetamide], the IC50 was < 10 nM in test [1] (Homo sapiens, G-401, 48 h) and < 50 nM in test [2].
In the same order, the values of `Cc1ccc2ccc(N[C@H]3CC[C@H](CNc4ncc([C@H](O)C(=O)NC5COC5)cn4)CC3)nc2c1Cl` (single isomer, unassigned) [Example 10, (S)-2-(2-((((1r,4S)-4-((8-chloro-7-methylquinolin-2-yl)amino)cyclohexyl)methyl)amino)pyrimidin-5-yl)-2-hydroxy-N-(oxetan-3-yl)acetamide; or (R)-2-(2-((((1r,4R)-4-((8-chloro-7-methylquinolin-2-yl)amino)cyclohexyl)methyl)amino)pyrimidin-5-yl)-2-hydroxy-N-(oxetan-3-yl)acetamide] are 10 to 100 nM and 50 to 100 nM.
For `Cc1ccc2ccc(N[C@H]3CC[C@H](CNc4ncc([C@H](C)C(=O)NC5COC5)cn4)CC3)nc2c1Cl` (single isomer, unassigned) [Example 13, (S)-2-(2-((((1r,4S)-4-((8-chloro-7-methylquinolin-2-yl)amino)cyclohexyl)methyl)amino)pyrimidin-5-yl)-N-(oxetan-3-yl)propanamide; or (R)-2-(2-((((1r,4R)-4-((8-chloro-7-methylquinolin-2-yl)amino)cyclohexyl)methyl)amino)pyrimidin-5-yl)-N-(oxetan-3-yl)propanamide], the IC50 in test [2] was < 50 nM.
In the case of `Cc1ccc2ccc(N[C@H]3CC[C@H](CNc4ncc(CC(=O)NC5COC5)cn4)CC3)nc2c1Cl` [Example 1, 2-(2-((((1R,4R)-4-((8-chloro-7-methylquinolin-2-yl)amino)cyclohexyl)methyl)amino)pyrimidin-5-yl)-N-(oxetan-3-yl)acetamide], the IC50 was < 10 nM in test [1] (Homo sapiens, G-401, 48 h) and < 50 nM in test [2].
As for `Cc1ccc2ccc(N[C@H]3CC[C@H](CNc4ncc(C(O)C(=O)NC5COC5)cn4)CC3)nc2c1Cl` (some centres unmarked) [Example 9, 2-(2-((((1r,4r)-4-((8-chloro-7-methylquinolin-2-yl)amino)cyclohexyl)methyl)amino)pyrimidin-5-yl)-2-hydroxy-N-(oxetan-3-yl)acetamide], the IC50 is < 10 nM in test [1] (Homo sapiens, G-401, 48 h) and < 50 nM in test [2].
In the same order, the values of `Cc1ccc2ccc(N[C@H]3CC[C@H](CNc4ncc(C(C)(O)C(=O)NC5COC5)cn4)CC3)nc2c1Cl` (some centres unmarked) [Example 4, 2-(2-((((1r,4r)-4-((8-chloro-7-methylquinolin-2-yl)amino)cyclohexyl)methyl)amino)pyrimidin-5-yl)-2-hydroxy-N-(oxetan-3-yl)propanamide] are > 100 nM and < 50 nM.
Turning to `Cc1ccc2ccc(N[C@H]3CC[C@H](CNc4ncc(C(F)(F)C(=O)NC5COC5)cn4)CC3)nc2c1Cl` [Example 3, 2-(2-((((1r,4r)-4-((8-chloro-7-methylquinolin-2-yl)amino)cyclohexyl)methyl)amino)pyrimidin-5-yl)-2,2-difluoro-N-(oxetan-3-yl)acetamide], the IC50 in test [1] (Homo sapiens, G-401, 48 h) was < 10 nM; in test [2], < 50 nM.
In the same order, the values of `Cc1ccc2ccc(N[C@H]3CC[C@H](CNc4ccc(CC(=O)NC5COC5)cn4)CC3)nc2c1Cl` [Example 15, 2-(6-((((1r,4r)-4-((8-chloro-7-methylquinolin-2-yl)amino)cyclohexyl)methyl)amino)pyridin-3-yl)-N-(oxetan-3-yl)acetamide] are < 10 nM and < 50 nM.
In the same order, the values of `Cc1ccc2ccc(N[C@H]3CC[C@H](CNc4ncc(C(C)C(=O)NC5COC5)cn4)CC3)nc2c1Cl` (some centres unmarked) [Example 12, 2-(2-((((1r,4r)-4-((8-chloro-7-methylquinolin-2-yl)amino)cyclohexyl)methyl)amino)pyrimidin-5-yl)-N-(oxetan-3-yl)propanamide] are < 10 nM and < 50 nM.

(Values after patent US12473273B2, “Quinoline compounds and compositions for inhibiting EZH2” (Novartis AG, priority 2020, dated 2025).)
